Patent US10681909B2, “Herbicidal triazoles” (FMC Corporation, priority 2014, dated 2020)

Tests used:
barnyardgrass [1] = assay: Test A preemergence; type: in vivo, Echinochloa crus-galli; settings: 0 to 100 scale (0 no effect, 100 complete control)
Method in brief: (§1)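 For preemergence, seeds were sown in a loam soil-sand blend and given a directed soil spray of test chemical in a non-phytotoxic solvent mixture with surfactant. For postemergence, plants in pots of the same blend were sprayed with the same formulation at the one- to two-leaf stage, 2 to 10 cm tall.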

foxtail, giant [2] = assay: Test A preemergence; type: in vivo, Setaria faberii; settings: 0 to 100 scale (0 no effect, 100 complete control)
Method in brief: as §1

pigweed [3] = assay: Test A preemergence; type: in vivo, Amaranthus retroflexus; settings: 0 to 100 scale (0 no effect, 100 complete control)
Method in brief: as §1

barnyardgrass [4] = assay: Test A postemergence; type: in vivo, Echinochloa crus-galli; settings: 0 to 100 scale (0 no effect, 100 complete control), approx. 10 d
Method in brief: as §1

foxtail, giant [5] = assay: Test A postemergence; type: in vivo, Setaria faberii; settings: 0 to 100 scale (0 no effect, 100 complete control), approx. 10 d
Method in brief: as §1

pigweed [6] = assay: Test A postemergence; type: in vivo, Amaranthus retroflexus; settings: 0 to 100 scale (0 no effect, 100 complete control), approx. 10 d
Method in brief: as §1

wheat = assay: Test A postemergence; type: in vivo, Triticum aestivum; settings: 0 to 100 scale (0 no effect, 100 complete control), approx. 10 d
Method in brief: as §1

corn [7] = assay: Test A postemergence; type: in vivo, Zea mays; settings: 0 to 100 scale (0 no effect, 100 complete control), approx. 10 d
Method in brief: as §1

rice = assay: Test B flooded paddy test; type: in vivo, Oryza sativa; settings: 250 g ai/ha, applied to paddy water at 2-leaf stage, visual rating after 13 to 15 d, scale 0 (no effect) to 100 (complete control)
Method in brief: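 Pots were flooded to 3 cm above the soil at treatment, and compounds were applied directly into the paddy water. That depth was held throughout. After 13 to 15 d in a greenhouse, plants were rated visually against untreated controls.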

ryegrass, Italian = assay: Test C postemergence; type: in vivo, Lolium multiflorum
Method in brief: (§2)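 Test chemicals in a non-phytotoxic solvent mixture with surfactant were applied to pots of plants at 2 to 18 cm (1- to 4-leaf stage) for postemergence treatment, grown in a peat-based medium with vermiculite, starter nutrients and dolomitic limestone. Preemergence treatment was to seeds freshly planted in loam soil mixed with sand.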

wheat (winter wheat) = assay: Test C postemergence; type: in vivo, Triticum aestivum
Method in brief: as §2

galium = assay: Test C postemergence; type: in vivo, Galium aparine
Method in brief: as §2

corn [8] = assay: Test C postemergence; type: in vivo, Zea mays
Method in brief: as §2

crabgrass, large = assay: Test C postemergence; type: in vivo, Digitaria sanguinalis
Method in brief: as §2

lambsquarters = assay: Test C postemergence; type: in vivo, Chenopodium album
Method in brief: as §2

nutsedge, yellow = assay: Test C postemergence; type: in vivo, Cyperus esculentus
Method in brief: as §2

pigweed [9] = assay: Test C postemergence; type: in vivo, Amaranthus retroflexus
Method in brief: as §2

soybean = assay: Test C postemergence; type: in vivo, Glycine max
Method in brief: as §2

oilseed rape = assay: Test C postemergence; type: in vivo, Brassica napus
Method in brief: as §2

waterhemp = assay: Test C postemergence; type: in vivo, Amaranthus rudis
Method in brief: as §2

velvetleaf = assay: Test C postemergence; type: in vivo, Abutilon theophrasti
Method in brief: as §2

SMILES: CCOc1nc(-c2ccccc2)nn1Cc1ccnc(C(F)(F)F)c1 [Compound 27]
- Plant response rating, Barnyardgrass (barnyardgrass [1]; 125 g ai/ha): 100
- Plant response rating, Barnyardgrass (barnyardgrass [1]; 500 g ai/ha, approx. 10 d): 100
- Plant response rating, Foxtail, Giant (foxtail, giant [2]; 125 g ai/ha): 100
- Plant response rating, Foxtail, Giant (foxtail, giant [2]; 500 g ai/ha, approx. 10 d): 100
- Plant response rating, Pigweed (pigweed [3]; 125 g ai/ha): 100
- Plant response rating, Pigweed (pigweed [3]; 500 g ai/ha, approx. 10 d): 100
- Plant response rating, Barnyardgrass (barnyardgrass [4]; 125 g ai/ha): 90
- Plant response rating, Barnyardgrass (barnyardgrass [4]; 500 g ai/ha): 90
- Plant response rating, Foxtail, Giant (foxtail, giant [5]; 125 g ai/ha): 90
- Plant response rating, Foxtail, Giant (foxtail, giant [5]; 500 g ai/ha): 100
- Plant response rating, Pigweed (pigweed [6]; 125 g ai/ha): 100
- Plant response rating, Pigweed (pigweed [6]; 500 g ai/ha): 100
- Plant response rating, Wheat (wheat; 125 g ai/ha): 20
- Plant response rating, Wheat (wheat; 500 g ai/ha): 70
- Plant response rating, Corn (corn [7]; 125 g ai/ha): 60
- Plant response rating, Corn (corn [7]; 500 g ai/ha): 70
- Plant response rating, Rice, Flood (rice): 30
- Plant response rating (scale of 0 to 100 where 0 is no effect and 100 is complete control) (ryegrass, Italian; 31 g ai/ha): 5
- Plant response rating (scale of 0 to 100 where 0 is no effect and 100 is complete control) (ryegrass, Italian; 62 g ai/ha): 20
- Plant response rating (scale of 0 to 100 where 0 is no effect and 100 is complete control) (ryegrass, Italian; 125 g ai/ha): 30
- Plant response rating (scale of 0 to 100 where 0 is no effect and 100 is complete control) (ryegrass, Italian; 250 g ai/ha): 35
- Plant response rating (scale of 0 to 100 where 0 is no effect and 100 is complete control) (wheat (winter wheat); 31 g ai/ha): 5
- Plant response rating (scale of 0 to 100 where 0 is no effect and 100 is complete control) (wheat (winter wheat); 62 g ai/ha): 5
- Plant response rating (scale of 0 to 100 where 0 is no effect and 100 is complete control) (wheat (winter wheat); 125 g ai/ha): 5
- Plant response rating (scale of 0 to 100 where 0 is no effect and 100 is complete control) (wheat (winter wheat); 250 g ai/ha): 15
- Plant response rating (scale of 0 to 100 where 0 is no effect and 100 is complete control) (galium; 31 g ai/ha): 90
- Plant response rating (scale of 0 to 100 where 0 is no effect and 100 is complete control) (galium; 62 g ai/ha): 90
- Plant response rating (scale of 0 to 100 where 0 is no effect and 100 is complete control) (galium; 125 g ai/ha): 85
- Plant response rating (scale of 0 to 100 where 0 is no effect and 100 is complete control) (galium; 250 g ai/ha): 90
- Plant response rating (scale of 0 to 100 where 0 is no effect and 100 is complete control) (corn [8]; 31 g ai/ha): 10
- Plant response rating (scale of 0 to 100 where 0 is no effect and 100 is complete control) (corn [8]; 62 g ai/ha): 15
- Plant response rating (scale of 0 to 100 where 0 is no effect and 100 is complete control) (corn [8]; 125 g ai/ha): 10
- Plant response rating (scale of 0 to 100 where 0 is no effect and 100 is complete control) (corn [8]; 250 g ai/ha): 25
- Plant response rating (scale of 0 to 100 where 0 is no effect and 100 is complete control) (crabgrass, large; 31 g ai/ha): 10
- Plant response rating (scale of 0 to 100 where 0 is no effect and 100 is complete control) (crabgrass, large; 62 g ai/ha): 20
- Plant response rating (scale of 0 to 100 where 0 is no effect and 100 is complete control) (crabgrass, large; 125 g ai/ha): 15
- Plant response rating (scale of 0 to 100 where 0 is no effect and 100 is complete control) (crabgrass, large; 250 g ai/ha): 45
- Plant response rating (scale of 0 to 100 where 0 is no effect and 100 is complete control) (lambsquarters; 31 g ai/ha): 85
- Plant response rating (scale of 0 to 100 where 0 is no effect and 100 is complete control) (lambsquarters; 62 g ai/ha): 95
- Plant response rating (scale of 0 to 100 where 0 is no effect and 100 is complete control) (lambsquarters; 125 g ai/ha): 98
- Plant response rating (scale of 0 to 100 where 0 is no effect and 100 is complete control) (lambsquarters; 250 g ai/ha): 98
- Plant response rating (scale of 0 to 100 where 0 is no effect and 100 is complete control) (nutsedge, yellow; 31 g ai/ha): 5
- Plant response rating (scale of 0 to 100 where 0 is no effect and 100 is complete control) (nutsedge, yellow; 62 g ai/ha): 5
- Plant response rating (scale of 0 to 100 where 0 is no effect and 100 is complete control) (nutsedge, yellow; 125 g ai/ha): 10
- Plant response rating (scale of 0 to 100 where 0 is no effect and 100 is complete control) (nutsedge, yellow; 250 g ai/ha): 10
- Plant response rating (scale of 0 to 100 where 0 is no effect and 100 is complete control) (pigweed [9]; 31 g ai/ha): 85
- Plant response rating (scale of 0 to 100 where 0 is no effect and 100 is complete control) (pigweed [9]; 62 g ai/ha): 85
- Plant response rating (scale of 0 to 100 where 0 is no effect and 100 is complete control) (pigweed [9]; 125 g ai/ha): 95
- Plant response rating (scale of 0 to 100 where 0 is no effect and 100 is complete control) (pigweed [9]; 250 g ai/ha): 95
- Plant response rating (scale of 0 to 100 where 0 is no effect and 100 is complete control) (soybean; 31 g ai/ha): 70
- Plant response rating (scale of 0 to 100 where 0 is no effect and 100 is complete control) (soybean; 62 g ai/ha): 95
- Plant response rating (scale of 0 to 100 where 0 is no effect and 100 is complete control) (soybean; 125 g ai/ha): 65
- Plant response rating (scale of 0 to 100 where 0 is no effect and 100 is complete control) (soybean; 250 g ai/ha): 70
- Plant response rating (scale of 0 to 100 where 0 is no effect and 100 is complete control) (oilseed rape; Oilsee Rape, 250 g ai/ha): 90
- Plant response rating (scale of 0 to 100 where 0 is no effect and 100 is complete control) (oilseed rape; Oilseed Rape, 31 g ai/ha): 90
- Plant response rating (scale of 0 to 100 where 0 is no effect and 100 is complete control) (oilseed rape; Oilseed Rape, 62 g ai/ha): 90
- Plant response rating (scale of 0 to 100 where 0 is no effect and 100 is complete control) (oilseed rape; Oilseed Rape, 125 g ai/ha): 90
- Plant response rating (scale of 0 to 100 where 0 is no effect and 100 is complete control) (waterhemp; 31 g ai/ha): 90
- Plant response rating (scale of 0 to 100 where 0 is no effect and 100 is complete control) (waterhemp; 62 g ai/ha): 95
- Plant response rating (scale of 0 to 100 where 0 is no effect and 100 is complete control) (waterhemp; 125 g ai/ha): 95
- Plant response rating (scale of 0 to 100 where 0 is no effect and 100 is complete control) (waterhemp; 250 g ai/ha): 98
- Plant response rating (scale of 0 to 100 where 0 is no effect and 100 is complete control) (velvetleaf; 31 g ai/ha): 45
- Plant response rating (scale of 0 to 100 where 0 is no effect and 100 is complete control) (velvetleaf; 62 g ai/ha): 50
- Plant response rating (scale of 0 to 100 where 0 is no effect and 100 is complete control) (velvetleaf; 125 g ai/ha): 60
- Plant response rating (scale of 0 to 100 where 0 is no effect and 100 is complete control) (velvetleaf; 250 g ai/ha): 70
